According to patent US20240225971A1 (Genomatica, Inc., priority 2021, published 2024):
In brackets after ≈: the same amount, converted by molar mass.

How the values were obtained:
physchem = test: physchem
Source text: The term “fragrance composition” or “composition,” as used herein, represents a composition containing one or more fragrance ingredients described here and formulated with a physiologically acceptable diluent or solvent, used interchangeably here. In a fragrance composition, or composition that has a fragrance, such as a perfume, 20%-40% of the observable liquid may be comprised of a diluent, i.e., the delivery system for scents of the fragrance ingredients. The “log P” value, as used here, indicates whether a substance or fragrance ingredient will be absorbed by humans, animals, plants, or living tissue; diffused or disseminated by water.
(§1) Also included is the molecular weight of each of the fragrance ingredients. Not determinable (ND).

[1] = Water solubility at 25° C. of fragrance ingredients; details: 25° C.
Source text: as §1

[2] = Vapor pressure of fragrance ingredients
Source text: as §1

[3] = Flash point of fragrance ingredients; type: physicochemical
Source text: as §1

[4] = Clarity of fragrance ingredient in bioderived 1,3-BG by visual observation; details: 10% ingredient in bioderived 1,3-BG; clear, slightly haze, cloudy, particles, or separation
Procedure: (§2) Clarity for each of the fragrance ingredients (10% in bioderived 1,3-BG) was determined by visual observations after compounding and blending the fragrance ingredient with bioderived 1,3-BG and identified as clear, slightly haze, cloudy, particles, or separation.
(§3) Clarity for each of the fragrance ingredients (at 1% in bioderived 1,3-BG) was determined by visual observations after compounding and blending the fragrance ingredient with bioderived 1,3-BG and identified as clear, slightly haze, cloudy, particles, or separation.

[5] = Solubility of fragrance ingredients in bioderived 1,3-BG (visual inspection); details: 10% ingredient in bioderived 1,3-BG; excellent, good, moderate, poor, or none
Procedure: as §2, §3

microorganisms = test: Minimum Inhibitory Concentration (MIC) testing; type: cell-based
[6] = Repeated Insult Patch Test; type: in vivo, human
Procedure: Prior to the initiation of the study, each jar containing the test material received a N2 blanket conducted by the Analytical Department at Consumer Product Testing Company.
The upper back between the scapulae served as the treatment area. Approximately 0.2 ml of the test material, or an amount sufficient to cover the contact surface, was applied to the 1″×1″ absorbent pad portion of a clear adhesive dressing. This was then applied to the appropriate treatment site to form a semi-occlusive patch.
Erythema was scored numerically according to the key in TABLE 16. If present, additional Dermal Sequelae were indicated by the appropriate letter code and a numerical value for severity was assigned.
Patches were applied three (3) times per week (e.g., Monday, Wednesday, and Friday) for a total of nine (9) applications. The site was marked to ensure the continuity of patch application. Following supervised removal and scoring of the first Induction patch, participants were instructed to remove all subsequent Induction patches at home, twenty-four hours after application. The evaluation of this site was made again just prior to re-application. If a participant was unable to report for an assigned test day, one (1) makeup day was permitted. This day was added to the Induction period.
Applications were discontinued for the remainder of this test phase, if a moderate (2-level) reaction was observed on this new test site. Applications would also be discontinued if marked (3-level) or severe (4-level) reactivity was noted.
Rest periods consisted of one day following each Tuesday and Thursday removal, and two days following each Saturday removal.
Approximately two (2) weeks after the final Induction patch application, a Challenge patch was applied to a virgin test site adjacent to the original Induction patch site, following the same procedure described for the Induction Phase. The Challenge patch was removed and the site scored at the clinic on Day 1 and Day 3 post-application.

[7] = Technical quality analysis (viscosity, precipitation, color, visual clarity, skin testing)
Procedure: Color changes were noted if there were any color variation resulting from the addition of fragrance ingredient in diluent. For select fragrance ingredients, skin testing was performed. Specifically, in the first round of testing, skin odor evaluation was performed on an interim basis for selective ingredients.

For `CCCc1ccc(O)c(OC)c1` [Dihydro Eugenol], the logP (physchem) was 2.39, the “Water Solubility” value [1] was 228.000 µg/mL and the “Vapor Pressure” value [2] was 0.006 mm hg. The “Flash Point” value [3] was 100 °C, the “Clarity 10%” value [4] was “Clear” and the “Solubility 10%” value [5] was “Good”.
In the case of `CC(O)CCO` (centres unmarked) [bioBG, 1,3-butylene glycol], the MIC (microorganisms; Escherichia coli, E. coli, concentration completely inhibiting microbial growth) is reported as 100 mg/mL (≈ 1110 mM), the “inhibition of microbial growth in MIC tests” value (microorganisms; compared to 1,3-PG and glycerin) is reported as “increased ability to inhibit microbial growth compared to 1,3-Propylene Glycol (1,3-PG) and glycerin” and the adverse events ([6]; 40% dilution in water) is reported as “no adverse events”. For the same compound, the “Virgin Challenge Site Day 1* skin reaction score” value ([6]; bioBG diluted to 40%, human subjects, Challenge patch, Day 1 post-application, supervised removal, one line per subject) was 0, the “Virgin Challenge Site Day 3 skin reaction score” value ([6]; bioBG diluted to 40%, human subjects, Challenge patch, Day 3 post-application, one line per subject) was 0 and the “Induction Phase 2 skin reaction score” value ([6]; bioBG diluted to 40%, human subjects, Induction reading 2, one line per subject) was 0. For the same compound, the “Induction Phase 3 skin reaction score” value ([6]; bioBG diluted to 40%, human subjects, Induction reading 3, one line per subject) was 0, the “Induction Phase 4 skin reaction score” value ([6]; bioBG diluted to 40%, human subjects, Induction reading 4, one line per subject) was 0 and the “Induction Phase 5 skin reaction score” value ([6]; bioBG diluted to 40%, human subjects, Induction reading 5, one line per subject) was 0. For the same compound, the “Induction Phase 6 skin reaction score” value ([6]; bioBG diluted to 40%, human subjects, Induction reading 6, one line per subject) was 0, the “Induction Phase 7 skin reaction score” value ([6]; bioBG diluted to 40%, human subjects, Induction reading 7, one line per subject) was 0 and the “Induction Phase 8 skin reaction score” value ([6]; bioBG diluted to 40%, human subjects, Induction reading 8, one line per subject) was 0. The “Induction Phase 9 skin reaction score” value ([6]; bioBG diluted to 40%, human subjects, Induction reading 9, one line per subject) was 0, the “Induction Phase Day 1* skin reaction score” value ([6]; bioBG diluted to 40%, human subjects, first Induction patch, supervised removal, one line per subject) was 0 and the “skin properties when applied to skin” value ([6]; up to a concentration of 40%) was “non-irritating, non-sensitizing, and/or non-allergenic”. The “visual clarity compared to DPG, BB, IPM” value [7] was “exceptional visual clarity with a crystal clear appearance” and the viscosity ([7]; observed with the different fragrance ingredients) was “very consistent”.
In the case of `CCCCCC1C(=O)CCC1CC(=O)OC` (centres unmarked) [Hedione], the logP (physchem) is reported as 2.653, the “Water Solubility” value [1] is reported as 91.720 µg/mL and the “Vapor Pressure” value [2] is reported as 0.001 mm hg. The “Flash Point” value [3] was 148 °C, the “Clarity 10%” value [4] was “Clear” and the “Solubility 10%” value [5] was “Good”.
